From US12083113B2, “Use of neuronal nitric oxide synthase inhibitors for immunotherapy in melanoma patients” (Northwestern University, priority 2018, dated 2024)

Experiments:
[1] = system: human melanoma cell lines (A375, Sk-Mel-28, wm3211); test: Cytotoxicity by MTT colorimetric analysis in human melanoma cell lines; type: cell-based; details: read-out: Cytotoxicity (IC50 from 3 melanoma cell lines)
Procedure: Table 1. […] All the NOS isozymes used were recombinant enzymes overexpressed in E. coli. Ki values are calculated directly using known literature methods and detailed in co-PI R. Silverman's published manuscripts (17, 18, 64, 85). Cytotoxic effects of nNOS inhibitors in human melanoma were detected by MTT colorimetric analysis (85). The IC50 values are the average of at least two human melanoma cell lines.

[2] = system: A375 human melanoma xenograft; test: A375 melanoma xenograft, HH044 20 mg/kg (Example 2)
[3] = system: PD-L1 in A375 melanoma cells; test: Cell surface PD-L1 expression by flow cytometry; type: cell-based, human; details: for MFI of PD-L1 staining obtained via flow cytometry: IFN-γ alone or with MAC-3-190 (3 μM), 72-hour treatment; for cell surface expression of PD-L1: interferon alone, three cell lines
Procedure: FIG. 4. […] Three melanoma cell lines were treated with 250 units/mL of interferons for 48 hours. Whole cell lysates were collected and subjected to RPPA assay. […] Red, high expression; green, low expression. All the data points were normalized for protein loading and transformed to linear value. […] Cell surface expression of PD-L1 was determined by flow cytometry. Representative histograms out of two independent experimental replicates are shown. C) IFN-α or IFN-γ (100 Units/ml); D-E) IFN-α or IFN-γ (250 Units/ml).
Expression levels of PD-L1 detected by Flow Cytometry.

[4] = system: PD-L1 in A375 cells; test: PD-L1 expression by immunofluorescence staining; type: cell-based, human; details: for extracellular expression of PD-L1: interferon alone, 250 Units/ml
Procedure: FIG. 5. Expression of PD-L1 in metastatic melanoma A375 cells detected by immunofluorescence staining. […]. Cells were then fixed and permeabilized with 4% formaldehyde and methanol. Samples were blocked in blocking buffer containing 5% horse serum for 1 hour. The slides were then allowed to incubate in a 1:50 PD-L1 antibody dilution overnight at 4° C. and DAPI reagent for 1 hour. Representative images are shown stained with PD-L1 antibody (green) and DAPI (blue fluorescence). (Original magnifications, 100×). Representative images for 2 experimental replicates are shown.
Expression levels of PD-L1 detected by Immunofluorescence. A375 cells were plated on coverslips and incubated with 250 units/mL of IFN-α or IFN-γ in the presence or absence of […] of nNOS inhibitors for 72 hours. After treatment, cells on coverslips were fixed with 4% formaldehyde/PBS for 15 minutes at room temperature, followed by incubation with ice-cold 100% methanol for 10 minutes at −20° C. Samples were then incubated in blocking buffer (1×PBS, 5% horse serum, 0.3% Triton X-100) for 60 minutes, then in a 1:50 PD-L1 antibody dilution in dilution buffer (1×PBS, 1% BSA, 0.3% Triton X-100) overnight at 4° C. Stained specimens were rinsed with PBS then cured in the dark with DAPI fluorescence staining reagent for 1 hour. Slides were visualized and recorded using the BZ-X700 microscope (Keyence, Itasca, IL).

[5] = system: Human A375 metastatic melanoma xenograft; test: A375 melanoma xenograft, IFN-γ with or without MAC-3-190; type: in vivo, nude mice; details: for PD-L1-positive staining in xenograft tumors (immunohistochemistry): 21-day treatment, IFN-γ 1000 units per mouse i.p. daily, with or without MAC-3-190 5 mg/kg/day
Procedure: FIG. 6. […] Data was represented as mean±SD.
FIG. 7. Expression of PD-L1 in xenograft tumor samples obtained from the subject is administered an inhibitor of NOS and further is administered study detected by immunohistochemistry staining. PD-L1 staining (brown) of specimens at 100× (A) and 20× (B) magnification. […] . PD-L1 (C) and CD8 (D) stained specimens captured at 2× magnification.
In Vivo Xenograft Melanoma. […] .

[6] = system: A375 cells; test: Cytotoxicity in A375 cells; type: cell-based, human
[7] = system: Sk-mel-28 cells; test: Cytotoxicity in Sk-mel-28 cells; type: cell-based, human
[8] = system: nNOS expression in WM3211 cells; test: Western blot of nNOS expression in primary melanoma WM3211 cells; type: cell-based, human; details: IFN-γ persisted after 96 hours, IFN-α within 4 hours, recovered by 24 hours
Procedure: (§1) FIG. 2. A-C) Effects of IFN-α and IFN-γ treatment on nNOS expression levels in human primary melanoma WM3211 cells (A-B) and metastatic melanoma A375 cells. C) Distinct effects of IFN-α and IFN-γ on nNOS expression of A375 metastatic melanoma cells. A375 cells were treated with 500 units/mL of IFN-α or IFN-γ for 48 hours and whole cell lysates were collected. Samples were subjected to Western blot analysis for nNOS. A control of the protein loading was performed by detecting actin. D) Intracellular nitric oxide levels detected by microplate reader using DAF-FM fluorescence probe after IFN-α or IFN-γ treatment for 24 hours. E) IFN-γ-inducible nNOS expression was abrogated in nNOS-depleted melanoma cells. A375 cells transfected with shRNA-nNOS were treated with IFN-γ for 24 hours, followed by Western blot analysis.
Protein isolation and Western blotting. All samples were kept at 4° C. unless otherwise noted. […]
Equal amounts of protein, as detected by Bradford assay, were loaded and resolved on 7.5% SDS-polyacrylamide gels, then transferred to Immobilon-P^SQ polyvinylidene difluoride (PVDF) membranes (ISEQ00010; Merck KGaA, Darmstadt, Germany). […] Labeled bands were detected using SuperSignal horseradish peroxidase chemiluminescence reagents (1859674; 1859675; Thermo Fisher Scientific, Waltham, MA) and images were captured and analyzed using the Bio-Rad ChemiDoc XRS^+ System.

[9] = system: STAT1; test: Western blot of STAT1 in A375 cells; type: cell-based, human; details: interferon alone
Procedure: (§2) FIG. 3. […] A375 cells were treated with 100 units/mL and 250 units/mL of IFN-γ or IFN-α for 24 hours; whole cell lysates and nuclear extracts were used for Western blot analysis to detect STAT3 and pSTAT3 respectively. […] Protein isolation and Western blotting. All samples were kept at 4° C. unless otherwise noted.
(§3) The membranes were blocked using 10% non-fat milk (NOS1, STAT1/2, Actin, Lamin A/C) or 5% bovine serum albumin (BSA; SH3057402; Fisher Scientific, Waltham, MA) (p-STAT1/3), then incubated with primary antibodies for 1 hour at room temperature or overnight at 4° C., followed by secondary antibodies for 1 hour at room temperature as recommended by the manufacturer. Blots were washed extensively with TBS-T after each antibody incubation.

[10] = system: WM115, Sk-mel-28 and A375; test: Reverse Phase Protein Array in three human melanoma cell lines; type: cell-based; details: 250 units/mL interferon; for PD-L1 expression level (RPPA): average of three cell lines
Procedure: FIG. 4. A) Heat map of Reverse Phase Protein Array (RPPA) showing distinct effects of IFN-α and IFN-γ on protein expression levels in three human melanoma cell lines (WM115, Sk-mel-28 and A375). Three melanoma cell lines were treated with 250 units/mL of interferons for 48 hours. Whole cell lysates were collected and subjected to RPPA assay. […] Red, high expression; green, low expression. All the data points were normalized for protein loading and transformed to linear value. […] Average changes of three cell lines detected by RPPA were shown in the figure. *, p<0.05 in comparison to control and IFN-α. C-E) Induction of PD-L1 by IFN-γ was diminished by the co-treatment of nNOS inhibitors. […]. Cell surface expression of PD-L1 was determined by flow cytometry. Representative histograms out of two independent experimental replicates are shown. C) IFN-α or IFN-γ (100 Units/ml); D-E) IFN-α or IFN-γ (250 Units/ml).
Reverse Phase Protein Array. Plated cells were treated with 250 units/mL of IFN-α or IFN-γ for […]. After washing with 1×PBS, lysis buffer (1% Triton X-100, 50 mM HEPES, pH 7.4, 150 mM NaCl, 1.5 mM MgCl2, 1 mM EGTA, 100 mM NaF, 10 mM Na pyrophosphate, 1 mM Na3VO4, 10% glycerol and 1% PIC) was added to the plates, followed by incubation on ice for 20 minutes with occasional shaking. Samples were then collected via scraping and spun down at 14,000 g^−1 for 10 minutes at 4° C. The protein concentration was then quantified by Bradford method and adjusted to 1.5 μg/μL with lysis buffer. Cell lysates were then mixed with 4×SDS sample buffer (40% glycerol, 8% SDS, 0.25M Tris-HCl, pH 6.8 with 10% BME). Miniscule amounts of serially diluted protein samples were then dotted on a nitrocellulose coated slide and probed with validated primary antibodies and a biotin-conjugated secondary antibody. The signals were amplified using Dako-Cytomation-Catalyzed system (Dako) and visualized by diaminobenzidine (DAB) colorimetric reaction. Dilution curves were fitted with Supercurve Fitting and the protein expressions normalized for protein loading.

[11] = system: intracellular NO in melanoma cells; test: Intracellular nitric oxide levels, DAF-FM fluorescence probe; type: cell-based, human; details: DAF-FM probe after interferon exposure
Procedure: as §1
Detection of intracellular nitric oxide levels. Cultured cells in a 96-well plate were treated with 100 units/mL of IFN-α or IFN-γ for 48 hours. Once the incubation period was complete, the media was removed and replaced with Hank's Balanced Salt Solution (HBSS). 1 μM of 4-Amino-5-methylamino-2′,7′-difluorofluorescein (DAF-FM) probe was added to each condition and fluorescence levels produced by DAF-FM were detected using a fluorescence microplate reader with excitation and emission wavelengths of 485 and 538 nm, respectively.

[12] = system: STAT3; test: Western blot of STAT3 and phospho-STAT3 in A375 cells; type: cell-based, human; details: A375 cells exposed to interferon, 24 hours
Procedure: as §2
Nuclear and cytosolic protein extraction is described elsewhere (84). Cells were collected via centrifugation and re-suspended in buffer A (10 mM HEPES, pH 7.9, 10 mM KCl, 0.150 mM MgCl2, 0.5 mM DTT, 0.2 mM PMSF) with 1% PIC and allowed to swell for 10 minutes. 10% NP-40 was added and vortexed to lyse the cells. […] Buffer D (20 mM HEPES, 20% glycerol, 50 mM KCl, 0.5 mM EDTA, 0.5 mM DTT, and 0.2 mM PMSF) was then added to dilute the nuclear sample.
as §3

[13] = system: A375 metastatic melanoma cells; test: Matrigel invasion assay; type: cell-based, human; details: compared to control, p<0.05
Procedure: (§4) FIG. 1. A) Effect of IFN-γ on melanoma invasion potential detected by matrigel invasion assay. The represented data were from A375 metastatic melanoma cells treated with IFN-γ. *, p<0.05 compared to control. B) Adhesion analysis. A375 melanoma cells were seeded on top of fibroblast monolayer and incubated with IFN-γ for 1 hour, followed by MTT assay. *, p<0.05 compared to control.

[14] = system: A375 melanoma cells; test: Adhesion of melanoma cells to fibroblast monolayer; type: cell-based, human; details: incubated 1 hour, MTT assay
Procedure: as §4

## N=C(Nc1ccc(CCNCc2cccc(NC(=N)c3cccs3)c2)cc1)c1cccs1 [HH044]
[1]
  IC50: 5.27 ± 3.3 µM
[2]; 20 mg/kg/day for 21 days
  lung, liver, and kidney weights: no significant changes
[2]; 20 mg/kg/day for 21 days, 23.9 g in control group
  body weight: 22.6 g
[2]; 20 mg/kg/day, not statistically significant (p>0.05)
  reduction in body weight: < 10%

## CNCc1cccc(CCc2ccc3c(C)cc(N)nc3c2)c1 [MAC-3-190]
[3]; A375 cells
  MFI of PD-L1 staining obtained via flow cytometry: 1.9 folds of control
[3]; A375 cells, co-treatment with nNOS inhibitor 3 μM, 72 hours
  Induction of PD-L1 by IFN-γ, cell surface expression: diminished
[4]; co-treatment with 3 μM, IFN-γ 250 Units/ml, 72 hours
  IFN-γ-inducible PD-L1 expression: significantly diminished
[4]; treatment with inhibitor alone, compared to control
  basal level of PD-L1: did not alter
[5]; 10 mg/kg/day
  PD-L1 expression in xenograft tumors: significantly reduced
[5]
  PD-L1-positive staining in xenograft tumors (immunohistochemistry): > 15%
[5]; co-treatment, 5 mg/kg subcutaneously injected daily, p<0.05 compared to IFN-γ treatment
  induction in tumor volume by IFN-γ, end of study: effectively diminished

## N.N.[Cl][Pt][Cl] [cisplatin]
[6]
  IC50: 4.2 µM
[7]
  IC50: 14.3 µM

## IFN-α
[8]
  nNOS expression levels: undetectable levels
[9]
  expression of STAT1: increase
[3]
  cell surface expression of PD-L1: reduced
[4]; 72 hours
  extracellular expression of PD-L1: low basal expression
[10]
  PD-L1 expression level (RPPA): absent
[11]
  intracellular NO levels: significantly decreased

B1: IFN-γ: Interferon-gamma, purchased from Invitrogen (protein, UniProt P01579 24-161, looked up)
Interferon gamma: QDPYVKEAENLKKYFNAGHSDVADNGTLFLGILKNWKEESDRKIMQSQIVSFYFKLFKNFKDDQSIQKSVETIKEDMNVKFFNSNKKKRDDFEKLTNYSVTDLNVQRKAIHELIQVMAELSPAAKTGKRKRSQMLFRG
[8]
  nNOS expression levels: markedly induced
[12]
  Phospho-STAT3 levels: 1.9 folds of control
  expression levels of STAT3: 1.6 folds of control
[9]
  expression of STAT1: higher induction
[3]; A375 cells
  MFI of PD-L1 staining obtained via flow cytometry: 3.3 folds of control
[3]
  cell surface expression of PD-L1: increased
[4]; 72 hours
  extracellular expression of PD-L1: markedly induced
[10]
  c-Myc and HIF-1α expression levels (RPPA): Increased
  PD-L1 expression level (RPPA): 1.8 fold of control
[11]
  intracellular NO levels: elevated
[13]
  melanoma invasion potential: significantly enhanced
[14]
  adhesion capacity of melanoma cells to fibroblast cells: significantly enhanced
[5]
  PD-L1-positive staining in xenograft tumors (immunohistochemistry): > 20%
[5]; IFN-γ 1000 units/day, 21 days
  tumor growth in vivo: significantly stimulated
